Results published in patent publication US11427548B2 (Arvinas Operations, Inc., priority 2015, dated 2022).
Like-named read-outs stand apart in the source and are kept apart here.

Legend:
Format in all cases: cell-based
VCaP cells = experiment: VCaP cell proliferation assay (Cell Titer Glo), GI50; conditions: Homo sapiens; VCaP cells, 0.1 nM R1881; Table 38 (ABM); read-out: GI50, Inhibition of VCaP Proliferation
Description: 2. VCaP Cell Proliferation Assay.
VCaP cells are plated 7,500/well 200 μL/well in VCaP assay medium [Phenol red free RPMI (Gibco Cat #11835-030); 5% Charcoal Stripped (Dextran treated) FBS (Omega Scientific, Cat #FB-04); Pen/Strep Life Technologies (Gibco Cat #: 10378-016); 0.1 nM R1881 (Sigma, Cat #R0908) is added upon the start of the assay, not during initial plating of the cells).
The assay was performed as follows: the cells are grown for a minimum of 3 days to deplete androgens; dosing of PROTACs and R1881 is performed as for AR ELISA; the baseline reading of Cell Titer Glo can be performed on day of dosing.
VCaP cells with 0.1 nM R1881 will double once in 4 days. Gently draw off 110 μL of media so as not to disturb the adherent cells; add 110 μL of CTG; incubate with slow shaking for 20 minutes; and read luminescence on a plate reader.

Androgen Receptor [1] = target: T1, Androgen Receptor (Homo sapiens, UniProt P10275); experiment: Androgen Receptor ELISA assay (PathScan AR ELISA) in VCaP cells: AR degradation, Dmax and DC50
T1 construct: endogenous in cells; host or cells: VCaP cells
T1 sequence (P10275 1-920): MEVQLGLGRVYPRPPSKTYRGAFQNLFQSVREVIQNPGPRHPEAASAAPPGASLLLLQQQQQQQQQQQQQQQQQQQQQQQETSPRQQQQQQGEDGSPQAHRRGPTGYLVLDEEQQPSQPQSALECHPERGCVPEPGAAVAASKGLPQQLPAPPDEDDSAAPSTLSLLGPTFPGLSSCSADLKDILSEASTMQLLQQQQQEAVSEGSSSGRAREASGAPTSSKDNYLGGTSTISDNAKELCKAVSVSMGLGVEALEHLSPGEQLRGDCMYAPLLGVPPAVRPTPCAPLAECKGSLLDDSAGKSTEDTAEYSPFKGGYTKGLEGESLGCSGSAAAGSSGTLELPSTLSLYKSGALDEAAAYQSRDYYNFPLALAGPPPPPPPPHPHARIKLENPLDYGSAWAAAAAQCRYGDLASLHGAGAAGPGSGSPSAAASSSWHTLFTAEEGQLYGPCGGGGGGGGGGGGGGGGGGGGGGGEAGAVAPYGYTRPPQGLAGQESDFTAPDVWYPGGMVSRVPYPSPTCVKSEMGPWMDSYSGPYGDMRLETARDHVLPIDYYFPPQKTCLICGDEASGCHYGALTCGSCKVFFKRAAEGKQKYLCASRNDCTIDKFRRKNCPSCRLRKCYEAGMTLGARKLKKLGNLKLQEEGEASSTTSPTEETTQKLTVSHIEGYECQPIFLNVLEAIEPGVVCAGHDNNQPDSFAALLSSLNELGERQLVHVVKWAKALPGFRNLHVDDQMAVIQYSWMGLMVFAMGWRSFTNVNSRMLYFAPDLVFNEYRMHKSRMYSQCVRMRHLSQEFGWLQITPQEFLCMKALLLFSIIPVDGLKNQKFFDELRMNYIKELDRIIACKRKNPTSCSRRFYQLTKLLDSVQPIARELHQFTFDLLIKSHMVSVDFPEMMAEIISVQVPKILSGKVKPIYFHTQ
Procedure, shortened: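 VCaP cells, 30,000/well, grown ≥3 days in phenol red-free RPMI with 5% charcoal-stripped FBS; compound added in 0.1% DMSO with 0.1 nM R1881, 7 half-log doses, 24 h. Lysate AR quantified by PathScan sandwich ELISA, HRP/TMB read at 450 nm, giving DC50 and Dmax.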

Androgen Receptor [2] = target: T2, Androgen Receptor (Homo sapiens, UniProt P10275+P40337, T878A); experiment: Androgen Receptor ELISA assay (PathScan AR ELISA) in LNCaP cells: AR degradation, Dmax and DC50; conditions: for DC50: concentration that caused 50% Androgen Receptor degradation
T2 construct: Compounds have been evaluated in this assay in LNCaP and/or VCaP cells utilizing similar protocols; endogenous in cells; host or cells: LNCaP cells

[3] = read-out: VCaP DC50; concentration that caused 50% Androgen Receptor degradation, VCaP cells
[4] = highest percentage of Androgen Receptor degradation observed
[5] = highest percentage of Androgen Receptor degradation

T2 sequence (P10275 whole entry T878A): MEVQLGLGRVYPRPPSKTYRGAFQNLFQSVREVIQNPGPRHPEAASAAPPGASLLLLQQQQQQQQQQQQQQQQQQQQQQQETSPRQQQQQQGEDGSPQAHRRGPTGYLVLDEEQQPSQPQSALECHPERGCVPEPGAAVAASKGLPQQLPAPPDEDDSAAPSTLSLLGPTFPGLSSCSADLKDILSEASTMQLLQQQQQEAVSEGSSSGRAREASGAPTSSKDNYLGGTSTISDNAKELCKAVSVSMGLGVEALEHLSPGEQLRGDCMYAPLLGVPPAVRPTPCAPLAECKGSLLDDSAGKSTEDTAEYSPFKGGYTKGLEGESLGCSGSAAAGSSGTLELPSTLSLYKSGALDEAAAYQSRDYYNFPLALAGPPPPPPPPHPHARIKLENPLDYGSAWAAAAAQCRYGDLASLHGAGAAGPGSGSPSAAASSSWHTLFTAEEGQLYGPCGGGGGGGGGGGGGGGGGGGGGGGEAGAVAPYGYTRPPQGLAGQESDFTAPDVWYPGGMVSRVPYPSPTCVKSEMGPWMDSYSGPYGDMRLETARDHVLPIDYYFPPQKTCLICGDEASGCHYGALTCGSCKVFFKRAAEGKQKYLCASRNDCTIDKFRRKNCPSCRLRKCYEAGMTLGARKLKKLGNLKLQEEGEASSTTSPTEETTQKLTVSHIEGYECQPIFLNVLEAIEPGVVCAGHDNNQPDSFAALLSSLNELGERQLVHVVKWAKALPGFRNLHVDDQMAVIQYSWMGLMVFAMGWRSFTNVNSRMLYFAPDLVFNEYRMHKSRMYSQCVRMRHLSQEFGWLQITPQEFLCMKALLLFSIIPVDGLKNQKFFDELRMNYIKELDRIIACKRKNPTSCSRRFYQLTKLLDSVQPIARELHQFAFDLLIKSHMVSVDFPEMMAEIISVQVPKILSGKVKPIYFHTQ
T2 sequence (P40337 whole entry): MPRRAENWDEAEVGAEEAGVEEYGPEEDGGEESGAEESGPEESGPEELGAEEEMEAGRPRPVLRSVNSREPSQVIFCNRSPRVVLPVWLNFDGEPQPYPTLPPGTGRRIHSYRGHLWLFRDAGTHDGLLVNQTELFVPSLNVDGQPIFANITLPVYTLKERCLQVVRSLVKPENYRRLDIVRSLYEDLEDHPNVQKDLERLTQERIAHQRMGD
T2 sequence (Q15369 whole entry partner): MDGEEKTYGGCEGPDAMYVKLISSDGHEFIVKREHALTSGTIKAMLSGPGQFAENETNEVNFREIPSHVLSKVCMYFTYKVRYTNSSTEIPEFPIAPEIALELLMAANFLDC
T2 sequence (Q15370 whole entry partner): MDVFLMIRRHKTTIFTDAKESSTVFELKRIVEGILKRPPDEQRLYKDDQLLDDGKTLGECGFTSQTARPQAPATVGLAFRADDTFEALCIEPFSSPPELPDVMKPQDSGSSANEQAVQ

GI50 (VCaP cells) [nM]	SMILES	Dmax (Androgen Receptor [1]; VCaP, read-out: VCaP Dmax (%)) [%]	DC50 (Androgen Receptor [2]) [nM]	further results
51 to 250	CC(C)(C)OC(=O)N[C@H]1C(C)(C)[C@H](Oc2ccc(C#N)c(Cl)c2)C1(C)C [ABM-29]			
≥ 251	CC1(C)[C@H](NC(=O)c2cnn(CCO)c2)C(C)(C)[C@H]1Oc1ccc(C#N)c(Cl)c1 [ABM-34]			
51 to 250	CC1(C)[C@H](NC(=O)c2cnc(N)cn2)C(C)(C)[C@H]1Oc1ccc(C#N)c(Cl)c1 [ABM-31]			
≤ 50	CC1(C)[C@H](NC(=O)c2ccc(NCCCCCO)cc2)C(C)(C)[C@H]1Oc1ccc(C#N)c(Cl)c1 [ABM-36]			
51 to 250	COc1ccc(C(=O)N[C@H]2C(C)(C)[C@H](Oc3ccc(C#N)c(Cl)c3)C2(C)C)cc1 [ABM-33]			
	Cc1ncsc1-c1ccc(CNC(=O)[C@@H]2C[C@@H](O)CN2C(=O)[C@@H](NC(=O)COCCCOCCC(C)(C)CCOc2ccc(N3C(=S)N(c4ccc(C#N)c(C(F)(F)F)c4)C(=O)C3(C)C)cc2)C(C)(C)C)cc1 [Example 12, (2S,4R)-1-[(2S)-2-[2-(3-{[5-(4-{3-[4-cyano-3-(trifluoromethyl)phenyl]-5,5-dimethyl-4-oxo-2-sulfanylideneimidazolidin-1-yl}phenoxy)-3,3-dimethylpentyl]oxy}propoxy)acetamido]-3,3-dimethylbutanoyl]-4-hydroxy-N-{[4-(4-methyl-1,3-thiazol-5-yl)phenyl]methyl}pyrrolidine-2-carboxamide]	26 to 50	51 to 500	DC50 (Androgen Receptor [1]; [3]): < 50 nM; Dmax (Androgen Receptor [2]; [4]): > 71%
	Cc1ncsc1-c1ccc(CNC(=O)[C@@H]2C[C@@H](O)CN2C(=O)[C@@H](NC(=O)COCCCOCCCCOc2ccc(N3C(=S)N(c4ccc(C#N)c(C(F)(F)F)c4)C(=O)C3(C)C)cc2)C(C)(C)C)cc1 [Example 28, (2S,4R)-1-[(2S)-2-(2-{3-[4-(4-{3-[4-cyano-3-(trifluoromethyl)phenyl]-5,5-dimethyl-4-oxo-2-sulfanylideneimidazolidin-1-yl}phenoxy)butoxy]propoxy}acetamido)-3,3-dimethylbutanoyl]-4-hydroxy-N-{[4-(4-methyl-1,3-thiazol-5-yl)phenyl]methyl}pyrrolidine-2-carboxamide]	51 to 70	< 50	DC50 (Androgen Receptor [1]; [3]): < 50 nM; Dmax (Androgen Receptor [2]; [4]): > 71%
	Cc1ncsc1-c1ccc(CNC(=O)[C@@H]2C[C@@H](O)CN2C(=O)[C@@H](NC(=O)CCCOCCOCCCOc2ccc(N3C(=S)N(c4ccc(C#N)c(C(F)(F)F)c4)C(=O)C3(C)C)cc2)C(C)(C)C)cc1 [Example 300]	51 to 70	< 50	DC50 (Androgen Receptor [1]; read-out: VCaP DC50; VCaP cells; concentration that caused 50% Androgen Receptor degradation): < 50 nM; Dmax (Androgen Receptor [2]; [5]): 51 to 70%
	Cc1ncsc1-c1ccc(CNC(=O)[C@@H]2C[C@@H](O)CN2C(=O)[C@@H](NC(=O)COCCCOCCCCCOc2ccc(N3C(=S)N(c4ccc(C#N)c(Cl)c4)C(=O)C3(C)C)cc2)C(C)(C)C)cc1 [Example 8]	51 to 70	< 50	DC50 (Androgen Receptor [1]; [3]): < 50 nM; Dmax (Androgen Receptor [2]; [4]): > 71%
	COc1cc(N2C(=O)C(C)(C)N(c3ccc(OCCCCOCCCOCC(=O)N[C@H](C(=O)N4C[C@H](O)C[C@H]4C(=O)NCc4ccc(-c5scnc5C)cc4)C(C)(C)C)cc3)C2=S)ccc1C#N [Example 32, (2S,4R)-1-[(2S)-2-{2-[3-(4-{4-[3-(4-cyano-3-methoxyphenyl)-5,5-dimethyl-4-oxo-2-sulfanylideneimidazolidin-1-yl]phenoxy}butoxy)propoxy]acetamido}-3,3-dimethylbutanoyl]-4-hydroxy-N-{[4-(4-methyl-1,3-thiazol-5-yl)phenyl]methyl}pyrrolidine-2-carboxamide]		< 50	Dmax (Androgen Receptor [1]; VCaP, highest percentage of Androgen Receptor degradation observed, VCaP cells; read-out: VCaP Dmax (%)): 51 to 70%; DC50 (Androgen Receptor [1]; concentration that caused 50% Androgen Receptor degradation, VCaP cells; read-out: VCaP DC50): < 50 nM; Dmax (Androgen Receptor [2]; [4]): > 71%
	Cc1ncsc1-c1ccc(CNC(=O)[C@@H]2C[C@@H](O)CN2C(=O)[C@@H](NC(=O)COCCCCOC2CCN(C(=O)c3ccc(N4C(=S)N(c5ccc(C#N)c(C(F)(F)F)c5)C(=O)C4(C)C)cc3)CC2)C(C)(C)C)cc1 [Example 293]	< 25	51 to 500	Dmax (Androgen Receptor [2]; [5]): 51 to 70%

SMILES	GI50 (VCaP cells) [nM]	Dmax (Androgen Receptor [1]; VCaP, read-out: VCaP Dmax (%)) [%]	DC50 (Androgen Receptor [2]) [nM]	further results
CC1(C)[C@H](NC(=O)c2ccc(N)cc2)C(C)(C)[C@H]1Oc1ccc(C#N)c(Cl)c1 [ABM-30]	≤ 50			
CC1(C)[C@H](N)C(C)(C)[C@H]1Oc1ccc(C#N)c(Cl)c1 [ABM-26]	51 to 250			
CC1(C)[C@H](N)C(C)(C)[C@@H]1Oc1ccc(C#N)c(Cl)c1 [ABM-27]	≥ 251			
